By IC50 is commonly meant the point on the concentration scale where inhibition reaches its midpoint.

Molecules are shown by their SMILES. A value given as a limit tells only on which side of the number the result lay.

Sequence of CBP (Q92793 1081-1197): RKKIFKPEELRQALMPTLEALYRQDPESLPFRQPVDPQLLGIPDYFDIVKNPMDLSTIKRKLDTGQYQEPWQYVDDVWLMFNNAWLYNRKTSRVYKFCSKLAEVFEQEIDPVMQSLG

The assay has as its target CBP (Homo sapiens (Human), UniProt Q92793). Nature of the assay: In vitro CBP inhibition (AlphaScreen, biotinylated H4-tetraacetyl peptide). As to conditions: AlphaScreen, Table 29; read-out: CBP IC50. The assay is classed as binding. In a few lines: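 His-tagged CBP expressed in E. coli (50 nM final) incubated with biotinylated H4K5/8/12/16(Ac) peptide (20 nM final) in 50 mM HEPES pH 7.3, 10 mM NaCl, 0.25 mM TCEP, 0.1% BSA, 0.005% Brij-35, 0.4% DMSO, 20 min at room temp.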
Background: Alpha assays give light when donor and acceptor beads are brought close together.
Turning to `COc1ncc(-c2cc(=O)n(C)cc2-c2cnn(-c3ccccc3Cl)c2)cn1` [Example 315, 5-(1-(2-chlorophenyl)-1H-pyrazol-4-yl)-4-(2-methoxypyrimidin-5-yl)-1-methylpyridin-2(1H)-one], the IC50 is below 500 nM.
As for `COc1ncc(-c2cc(=O)n(C)cc2-c2cnn(-c3ccccc3Cl)c2)cc1C` [Example 316, 5′-(1-(2-chlorophenyl)-1H-pyrazol-4-yl)-6-methoxy-1′,5-dimethyl-[3,4′-bipyridin]-2′(1′H)-one], the IC50 was below 500 nM.
In the case of `COc1cc(-c2cc(=O)n(C)cc2-c2cnn(-c3ccccc3Cl)c2)ccn1` [Example 317, 5-(1-(2-chlorophenyl)-1H-pyrazol-4-yl)-2′-methoxy-1-methyl-[4,4′-bipyridin]-2(1H)-one] it was below 500 nM; in that of `Cn1ccc(-c2cc(=O)n(C)cc2-c2cnn(-c3ccccc3F)c2)cc1=O` [Example 318, 5-(1-(2-fluorophenyl)-1H-pyrazol-4-yl)-1,1′-dimethyl-[4,4′-bipyridine]-2,2′(1H,1′H)-dione], below 500 nM.
`COc1ccc(-c2cc(=O)n(C)cc2-c2cnn(-c3ccccc3F)c2)cn1` [Example 319]: the IC50 is below 500 nM.
As to `COc1ncc(-c2cc(=O)n(C)cc2-c2cnn(-c3ccccc3F)c2)cn1` [Example 320, 5-(1-(2-fluorophenyl)-1H-pyrazol-4-yl)-4-(2-methoxypyrimidin-5-yl)-1-methylpyridin-2(1H)-one], the IC50 is below 500 nM.
Take `Cn1cc(-c2cnn(C3CCCCC3O)c2)c(-c2ccccc2)cc1=O` (centres unmarked) [Example 321, 5-(1-(2-hydroxycyclohexyl)-1H-pyrazol-4-yl)-1-methyl-4-phenylpyridin-2(1H)-one]: the IC50 is below 500 nM.
With `Cn1cc(-c2cnn(-c3cccc(Cl)c3C#N)c2)c(-c2cnc(NC3CC3)nc2)cc1=O` [Example 322, 2-chloro-6-[4-[4-[2-(cyclopropylamino)pyrimidin-5-yl]-1-methyl-6-oxo-3-pyridyl]pyrazol-1-yl]benzonitrile], the IC50 is below 500 nM.
Turning to `COCCNc1ncc(-c2cc(=O)n(C)cc2-c2cnn(-c3ccccc3C#N)c2)cn1` [Example 324, 2-(4-(4-(2-((2-methoxyethyl)amino)pyrimidin-5-yl)-1-methyl-6-oxo-1,6-dihydropyridin-3-yl)-1H-pyrazol-1-yl)benzonitrile], the IC50 is below 500 nM.
Consider `CCNc1ncc(-c2cc(=O)n(C)cc2-c2cnn(-c3cccc(Cl)c3C#N)c2)cn1` [Example 325, 2-chloro-6-(4-(4-(2-(ethylamino)pyrimidin-5-yl)-1-methyl-6-oxo-1,6-dihydropyridin-3-yl)-1H-pyrazol-1-yl)benzonitrile], for which the IC50 was below 500 nM.
As to `COCCNc1ncc(-c2cc(=O)n(C)cc2-c2cnn(-c3cccc(Cl)c3C#N)c2)cn1` [Example 326, 2-chloro-6-(4-(4-(2-((2-methoxyethyl)amino)pyrimidin-5-yl)-1-methyl-6-oxo-1,6-dihydropyridin-3-yl)-1H-pyrazol-1-yl)benzonitrile], the IC50 was below 500 nM.
Turning to `Cn1cc(-c2cnn(-c3cccc(Cl)c3C#N)c2)c(-c2cnc(NCC3CC3)nc2)cc1=O` [Example 327, 2-chloro-6-(4-(4-(2-((cyclopropylmethyl)amino)pyrimidin-5-yl)-1-methyl-6-oxo-1,6-dihydropyridin-3-yl)-1H-pyrazol-1-yl)benzonitrile], the IC50 is below 500 nM.
In the case of `CN(C)c1ncc(-c2cc(=O)n(C)cc2-c2cnn(-c3cccc(Cl)c3C#N)c2)cn1` [Example 328, 2-chloro-6-(4-(4-(2-(dimethylamino)pyrimidin-5-yl)-1-methyl-6-oxo-1,6-dihydropyridin-3-yl)-1H-pyrazol-1-yl)benzonitrile], the IC50 is below 500 nM.
`Cn1cc(-c2cnn(-c3cccc(Cl)c3C#N)c2)c(-c2cnc(NC3CCCC3)nc2)cc1=O` [Example 329, 2-chloro-6-(4-(4-(2-(cyclopentylamino)pyrimidin-5-yl)-1-methyl-6-oxo-1,6-dihydropyridin-3-yl)-1H-pyrazol-1-yl)benzonitrile]: the IC50 is below 500 nM.
`Cn1cc(-c2cnn(-c3cccc(Cl)c3C#N)c2)c(-c2cnc(N3CCCC3)nc2)cc1=O` [Example 330, 2-chloro-6-(4-(1-methyl-6-oxo-4-(2-(pyrrolidin-1-yl)pyrimidin-5-yl)-1,6-dihydropyridin-3-yl)-1H-pyrazol-1-yl)benzonitrile]: the IC50 was below 500 nM.
On to `CC(C)Nc1ncc(-c2cc(=O)n(C)cc2-c2cnn(-c3cccc(Cl)c3C#N)c2)cn1` [Example 331, 2-chloro-6-(4-(4-(2-(isopropylamino)pyrimidin-5-yl)-1-methyl-6-oxo-1,6-dihydropyridin-3-yl)-1H-pyrazol-1-yl)benzonitrile], for which the IC50 was below 500 nM.
In the case of `CNc1ncc(-c2cc(=O)n(C)cc2-c2cnn(-c3cccc(Cl)c3C#N)c2)cn1` [Example 332, 2-chloro-6-(4-(1-methyl-4-(2-(methylamino)pyrimidin-5-yl)-6-oxo-1,6-dihydropyridin-3-yl)-1H-pyrazol-1-yl)benzonitrile] it was below 500 nM; in that of `CCNc1ncc(-c2cc(=O)n(C)cc2-c2cnn(-c3cccc(F)c3C#N)c2)cn1` [Example 333, 2-[4-[4-[2-(ethylamino)pyrimidin-5-yl]-1-methyl-6-oxo-3-pyridyl]pyrazol-1-yl]-6-fluoro-benzonitrile], below 500 nM.
For the molecule `CN(C)c1ncc(-c2cc(=O)n(C)cc2-c2cnn(-c3cccc(F)c3C#N)c2)cn1` [Example 334, 2-[4-[4-[2-(dimethylamino)pyrimidin-5-yl]-1-methyl-6-oxo-3-pyridyl]pyrazol-1-yl]-6-fluoro-benzonitrile], the half-maximal inhibitory concentration (IC50) is below 500 nM.
For the molecule `Cn1cc(-c2cnn(-c3cccc(Cl)c3C#N)c2)c(-c2cnc(N3CCOCC3)nc2)cc1=O` [Example 335, 2-chloro-6-(4-(1-methyl-4-(2-morpholinopyrimidin-5-yl)-6-oxo-1,6-dihydropyridin-3-yl)-1H-pyrazol-1-yl)benzonitrile], the IC50 is below 500 nM.
`Cn1cc(-c2cnn(-c3cccc(F)c3C#N)c2)c(-c2cnc(N3CCCC3)nc2)cc1=O` [Example 336, 2-fluoro-6-[4-[1-methyl-6-oxo-4-(2-pyrrolidin-1-ylpyrimidin-5-yl)-3-pyridyl]pyrazol-1-yl]benzonitrile]: the IC50 is below 500 nM.
On to `CN1CCN(c2ncc(-c3cc(=O)n(C)cc3-c3cnn(-c4cccc(Cl)c4C#N)c3)cn2)CC1` [Example 337, 2-chloro-6-(4-(1-methyl-4-(2-(4-methylpiperazin-1-yl)pyrimidin-5-yl)-6-oxo-1,6-dihydropyridin-3-yl)-1H-pyrazol-1-yl)benzonitrile], for which the IC50 was below 500 nM.
Take `Cn1cc(-c2cnn(-c3cccc(Cl)c3C#N)c2)c(-c2cnc(N3CCCCC3)nc2)cc1=O` [Example 338, 2-chloro-6-(4-(1-methyl-6-oxo-4-(2-(piperidin-1-yl)pyrimidin-5-yl)-1,6-dihydropyridin-3-yl)-1H-pyrazol-1-yl)benzonitrile]: the IC50 was below 500 nM.
On to `CC(C)Nc1ccc(-c2cc(=O)n(C)cc2-c2cnn(-c3cccc(Cl)c3C#N)c2)cn1` [Example 339, 2-chloro-6-[4-[4-[6-(isopropylamino)-3-pyridyl]-1-methyl-6-oxo-3-pyridyl]-pyrazol-1-yl]benzonitrile], for which the IC50 is below 500 nM.
In the case of `Cn1cc(-c2cnn(-c3cccc(Cl)c3C#N)c2)c(-c2ccc(NC3CCCC3)nc2)cc1=O` [Example 340, 2-chloro-6-(4-(6-(cyclopentylamino)-1′-methyl-6′-oxo-1′,6′-dihydro-[3,4′-bipyridin]-3′-yl)-1H-pyrazol-1-yl)benzonitrile] it was below 500 nM; in that of `CNc1ccc(-c2cc(=O)n(C)cc2-c2cnn(-c3cccc(Cl)c3C#N)c2)cn1` [Example 341, 2-chloro-6-(4-(1′-methyl-6-(methylamino)-6′-oxo-1′,6′-dihydro-[3,4′-bipyridin]-3′-yl)-1H-pyrazol-1-yl)benzonitrile], below 500 nM; in that of `CCNc1ccc(-c2cc(=O)n(C)cc2-c2cnn(-c3cccc(Cl)c3C#N)c2)cn1` [Example 342, 2-chloro-6-(4-(6-(ethylamino)-1′-methyl-6′-oxo-1′,6′-dihydro-[3,4′-bipyridin]-3′-yl)-1H-pyrazol-1-yl)benzonitrile], below 500 nM.
Take `Cn1cc(-c2cnn(-c3cccc(F)c3C#N)c2)c(-c2ccc(NC3CCCC3)nc2)cc1=O` [Example 343, 2-(4-(6-(cyclopentylamino)-1′-methyl-6′-oxo-1′,6′-dihydro-[3,4′-bipyridin]-3′-yl)-1H-pyrazol-1-yl)-6-fluorobenzonitrile]: the IC50 was below 500 nM.
In the case of `CCNc1ccc(-c2cc(=O)n(C)cc2-c2cnn(-c3cccc(F)c3C#N)c2)cn1` [Example 344, 2-(4-(6-(ethylamino)-1′-methyl-6′-oxo-1′,6′-dihydro-[3,4′-bipyridin]-3′-yl)-1H-pyrazol-1-yl)-6-fluorobenzonitrile], the IC50 is below 500 nM.
As to `CN(C)c1ccc(-c2cc(=O)n(C)cc2-c2cnn(-c3cccc(Cl)c3C#N)c2)cn1` [Example 345, 2-chloro-6-{4-[6-(dimethylamino)-1′-methyl-6′-oxo-1′,6′-dihydro-[3,4′-bipyridine]-3′-yl]-1H-pyrazol-1-yl}benzonitrile], the IC50 is below 500 nM.
`Cn1cc(-c2cnn(-c3cccc(F)c3C#N)c2)c(-c2ccc(NCC3CC3)nc2)cc1=O` [Example 346, 2-(4-{6-[(cyclopropylmethyl)amino]-1′-methyl-6′-oxo-1′,6′-dihydro-[3,4′-bipyridine]-3′-yl}-1H-pyrazol-1-yl)-6-fluorobenzonitrile]: the IC50 was below 500 nM.
Regarding `CN(C)c1ccc(-c2cc(=O)n(C)cc2-c2cnn(-c3cccc(F)c3C#N)c2)cn1` [Example 347, 2-{4-[6-(dimethylamino)-1′-methyl-6′-oxo-1′,6′-dihydro-[3,4′-bipyridine]-3′-yl]-1H-pyrazol-1-yl}-6-fluorobenzonitrile], the IC50 was below 500 nM.

The record behind these values is patent publication US10617680B2 (CELGENE QUANTICEL RESEARCH, INC., priority 2017, dated 2020).
